Five compounds from patent US20190211066A1 (INSTITUT NATIONAL DE LA SANTE ET DE LA RECHERCHE M EDICALE …, priority 2010, published 2019) can be followed below.

“Also recorded” adds a separate entry of the source.

Series [1] has as its system hCMEC/D3 cells. Nature of the series: Growth (size) of Nm colonies on cells under flow. The format is cell-based, human. On the procedure:
(§1) hCMEC/D3 cells were grown on disposable flow chambers (15 μ-Slide VI, IBIDI) coated with 5 μg/cm^2 of rat-tail collagen type I. For experiments investigating Nm colony growth under shear stress, 10^7 bacteria were introduced into the flow chamber and allowed to adhere for […] without flow. Subsequently, a flow corresponding to a shear stress of 0.2 dyn/cm^2 was applied using a syringe pump (Harvard Apparatus). For adhesion assays under shear stress, 10^7 bacteria were allowed to adhere for 20 min under a shear stress of 0.04 dyn/cm^2, then the chambers were washed 1 min under a shear stress of 1 dyn/cm^2 (Mairey et al., 2008. J Exp Med 203, 1939-1950).
GFP expression in bacteria was induced by adding 1 mM IPTG in EBM2, 0.1% BSA. For experiments aimed at determining the growth of colonies under shear stress, 107 bacteria were then introduced into the flow chamber and allowed to adhere for 20 min without flow. Subsequently, a flow corresponding to a shear stress of 0.2 dyn/cm2 was applied using a syringe pump (Harvard Apparatus). For adhesion assays under shear stress, […] were introduced into the flow chamber and allowed to adhere for 20 min under a shear stress of 0.04 dyn/cm2, subsequently the chamber was washed 1 min under a shear stress of 1 dyn/cm2, Fluorescent bacteria in the chambers were observed using an Olympus CKX41 inverted microscope with a 20× objective, equipped with a shutter for the fluorescence I amp and a Hamamatsu ORCA285 CCD camera. Images were collected and processed using the Openlab software (Improvision). The field under observation corresponded to a surface of 425 μm by 320 μm with a resolution of 0.63 μm per pixel. Images were analyzed using the lmageJ software.

In series [2] the test system is hCMEC/D3 cells. Nature of the series: Nm adhesion under shear stress (under flow). The format is cell-based, human. As to conditions: pre-treatment with 10 μM isoproterenol, shear stress 0.04 dyn/cm^2. On the procedure: as §1
GFP expression in bacteria was induced by adding 1 mM IPTG in EBM2, 0.1% BSA. […] For adhesion assays under shear stress, […] were introduced into the flow chamber and allowed to adhere for 20 min under a shear stress of 0.04 dyn/cm2, subsequently the chamber was washed 1 min under a shear stress of 1 dyn/cm2, Fluorescent bacteria in the chambers were observed using an Olympus CKX41 inverted microscope with a 20× objective, equipped with a shutter for the fluorescence I amp and a Hamamatsu ORCA285 CCD camera. […] Images were analyzed using the lmageJ software.

A further series relates to hCMEC/D3 cell monolayers. Nature of the series: Nm transmigration assay and cell-cell junction gaps. In kind it is cell-based, human. Here is the method: hCMEC/D3 cells were grown on 3 μm pore size MilliCell® inserts and infected at a MOI of 10, corresponding to 10^6 bacteria per insert. Four hours after infection, inserts were placed in a well with fresh medium. After additional 30 min, the number of bacteria, which had crossed the cell monolayer was determined by plating the content of the well and counting the number of colony forming units. To estimate the surface and number of macroscopic cell-cell junction openings, MilliCell® inserts were fixed in 4% PFA and immunostained for VE-cadherin and actin, Several baso-lateral cross-sections of each insert were acquired using a Leica SP5 confocal microscope. Surface and number of gaps within the hCMEC/D3 cell monolayer was determined using Leica Application Suite-AF (LAS-AF) software. Data were expressed as the number of gaps per 4×10 ^5 μm^2 of hCMEC/D3 cell monolayer surface. The size of gaps was determined using the apparent size of a Nm diplococcus as surface unit (approximately 1.7 μm^2).
Briefly, hCMEC/D3 cells were grown on 3 μm pore size MilliCell® inserts and infected at a MOI of 10 (10^6 bacteria per insert). […] After 30 min, the number of bacteria, which had crossed the monolayer of endothelial cells, was then measured by plating the content of dilutions of the lower compartment on agar plates and counting the number of colony forming units (CFU). […]

Series [3] deals with hCMEC/D3 cells. Nature of the series: Static adhesion of Nm (absence of flow). As to conditions: isoproterenol pre-treatment.
Protocol: (§2) The day before the infection, hCMEC/D3 cells were serum-starved in EBM-2 medium containing 0.1% Bovine Serum albumin (BSA). The day of infection, bacteria from an overnight culture were adjusted to OD600=0.05 and incubated for 2 h at 37° C. in pre-warmed starvation medium. Bacteria were added to cells at a multiplicity of infection (MOI) of 100 and allowed to adhere for 30 minutes. Unbound bacteria were washed with fresh medium and infection was allowed to proceed for 2 h. When needed, drugs were added to cell culture 1 h before infection. Bacteria were tested for growth and aggregation. […] The OD600 was then measured after 1, 2, 3, 4 and 8 h. Aggregation was determined after 2 h of incubation in EBM2, 0.1% BSA in the presence or absence of 100 μM isoproterenol at 37° C. in a 5% CO2 atmosphere under constant shaking.
In a further series the test system is N. meningitidis. Nature of the series: Nm growth in culture and bacterial aggregation. Conditions: 100 μM isoproterenol; data not shown.
The test system of series [4] is hCMEC/D3 cells. Kind of series: Quantitative analysis of ezrin (and other proteins) recruitment under Nm bacterial colonies. As to conditions: for ezrin recruitment / ezrin-containing cortical plaques under Nm colonies after siRNA: infection three days after transfection.
Description: The recruitment efficiency was estimated by determining the proportion of colonies positive for the indicated protein of interest. At least 50 colonies were observed per coverslip. Each experiment was repeated several times in duplicate or triplicate. Data was examined for significance using Student's t-test.
as §2
For each Nm strain, the recruitment efficiency was estimated by determining the proportion of colonies that efficiently recruited the protein of interest in a “honeycomb shape” just under the colonies. […] At least 50 colonies were scrutinized per coverslip. Each experiment was repeated several times (at least 3). Data was examined for significance using Student's t-test.

Protocol for N. meningitidis: as §2

With `C=C[C@@]1(C)CC(=O)[C@]2(O)[C@@]3(C)[C@@H](O)CCC(C)(C)[C@@H]3[C@H](O)[C@H](OC(C)=O)[C@@]2(C)O1` [forskolin], the “number and size of Nm colonies under flow compared to control conditions” value with hCMEC/D3 cells [1] (pre-incubation 1 h) was “no significant effect”.

Take `CC(C)NCC(O)c1ccc(O)c(O)c1` (centres unmarked) [isoproterenol]: the “reduction of bacterial adhesion / number of colonies forming under flow” value with hCMEC/D3 cells [2] is 40%. For the same compound, in the series on hCMEC/D3 cells [1] (preincubation of cells for 1 h with 10 μM before perfusion of bacteria, control 20% after 4 h), the “proportion of small colonies (≤12 μm^2, about 4 bacteria) under flow” value was “≈ 70%”. Further, the “proportion of large colonies (48 μm^2 or more, ≥16 bacteria) under flow” value in the series on hCMEC/D3 cells [1] (preincubation of cells for 1 h with 10 μM before perfusion of bacteria, control about 50% after 4 h) was around 10%. In addition, the “number of cell-cell junction gaps induced by Nm” value in the series on hCMEC/D3 cell monolayers (isoproterenol pre-treatment 10 μM, 1 h, gaps of all size) is listed as “noticeably reduced”. In addition, the “number of meningococci crossing the monolayer (lower chamber of transwells)” value with hCMEC/D3 cell monolayers (isoproterenol pre-treatment 1 h, 10 μM) is given as “markedly reduced”. For the same compound, in the series on hCMEC/D3 cells [3], the “bacterial adhesion in static conditions (absence of flow)” value is reported as “No significant difference; also recorded: did not reduce; also recorded: similar”. For the same compound, the “direct inhibition of Nm growth in culture or of bacterial aggregation properties” value in the series on N. meningitidis is on record as “not due to a direct inhibition”. Also, the “effect on Nm-induced ezrin recruitment” value with hCMEC/D3 cells [4] (hCMEC/D3 cells pre-treated with agonist for 2 h before Nm inoculation, saturating (10×KD) concentrations) is listed as “showed an effect”. Also, the “number of ezrin-containing cortical plaques” value with hCMEC/D3 cells [4] (isoproterenol dose response, hCMEC/D3 cells) is “dose-dependent reduction”.

In the case of `CC(C)NCC(O)COc1cccc2ccccc12` (centres unmarked) [propranolol], the “reversal of the effect of isoproterenol pre-treatment on Nm-promoted ezrin recruitment” value in the series with hCMEC/D3 cells [4] (100 nM propranolol added during pre-incubation with 10 μM isoproterenol) is listed as “blocked the effect of isoproterenol”. Further, in the series with hCMEC/D3 cells [4] (preincubation with saturating propranolol alone), the “number of ezrin-containing cortical plaques elicited by Nm, agent alone” value is “no effect”.

With “GRK2 siRNA: small interfering RNA targeting human GRK2 (SEQ ID NO: 6) (guide AAGAAGUACGAGAAGCUGGAGUU; chemistry not given here)”, in the series with hCMEC/D3 cells [4] (siRNA-treated hCMEC/D3 cells), the “ezrin recruitment / ezrin-containing cortical plaques under Nm colonies after siRNA” value was “inhibited”. Besides, the “βarr2 recruitment under Nm colonies after siRNA” value in the series on hCMEC/D3 cells [4] (siRNA-treated hCMEC/D3 cells, βarr2-GFP readout) is reported as “inhibited”.

With “βarr1 and βarr2 siRNAs: small interfering RNAs targeting human βarrestin-1 (SEQ ID NO: 4) and βarrestin-2 (SEQ ID NO: 5) (guide 1 AAAGCCUUCUGCGCGGAGAAU; guide 2 GGCUUGUCCUUCCGCAAAGAC; listed as RNA, chemistry not given here)”, the “recruitment of VE-cadherin, p120-catenin, F-actin and ezrin into cortical plaques after siRNA” value in the series with hCMEC/D3 cells [4] (siRNA-treated Nm-infected hCMEC/D3 cells) was “markedly and simultaneously affected”. Also, in the series with hCMEC/D3 cells [4] (siRNA-treated hCMEC/D3 cells), the “Src recruitment under Nm colonies after siRNA” value was “markedly reduced” and the “ezrin recruitment / ezrin-containing cortical plaques under Nm colonies after siRNA” value is “decrease”.
